This note sets out measurements from article PMC5268466, “Monofluorophosphate Blocks Internal Polysaccharide Synthesis in Streptococcus mutans” (PLoS ONE, 2017).

This assay has as its target T1, S. mutans ADP-Glc PPase (GlgC/GlgD) (Streptococcus mutans, UniProt M9TIK1).
T1 sequence (M9TIK1 1-381): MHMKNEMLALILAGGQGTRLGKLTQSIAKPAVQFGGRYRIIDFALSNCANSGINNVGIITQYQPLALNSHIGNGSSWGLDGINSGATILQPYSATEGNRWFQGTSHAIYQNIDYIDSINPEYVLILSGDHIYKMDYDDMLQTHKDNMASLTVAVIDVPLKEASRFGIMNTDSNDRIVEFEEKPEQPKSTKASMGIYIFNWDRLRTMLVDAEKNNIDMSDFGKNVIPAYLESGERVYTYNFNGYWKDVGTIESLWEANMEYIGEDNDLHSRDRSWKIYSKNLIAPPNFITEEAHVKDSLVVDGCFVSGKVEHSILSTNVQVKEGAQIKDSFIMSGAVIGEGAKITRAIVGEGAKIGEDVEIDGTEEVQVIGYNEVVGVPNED
T1 sequence (M9TG57 1-377 partner): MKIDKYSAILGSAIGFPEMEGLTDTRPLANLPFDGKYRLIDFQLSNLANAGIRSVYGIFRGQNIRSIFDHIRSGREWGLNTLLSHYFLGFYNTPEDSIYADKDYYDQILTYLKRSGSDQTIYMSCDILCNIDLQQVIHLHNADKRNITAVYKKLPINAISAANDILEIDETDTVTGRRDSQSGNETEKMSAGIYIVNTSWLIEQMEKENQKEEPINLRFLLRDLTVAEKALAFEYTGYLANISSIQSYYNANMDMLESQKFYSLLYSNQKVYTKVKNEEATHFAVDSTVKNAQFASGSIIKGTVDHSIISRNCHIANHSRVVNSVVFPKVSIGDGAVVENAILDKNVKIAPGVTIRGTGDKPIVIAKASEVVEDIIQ
The conditions noted are these: 2500 µM, pH 8.0, 37 C, allosteric.

As to `O=P(O)(O)O` [Pi, orthophosphate], the “No Fru-1,6-bisP / Activity (% remaining activity)” value was determined as 15 ± 2%.
